In PubChem BioAssay (NCI) one finds TGI data, which are given here for 18 compounds.

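Grown in 96-well plates, cells were treated for 48 hours with each compound at five concentrations. Insufficient inhibition: endpoint recorded as highest concentration tested. At the TGI there is no net growth.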

Common to all, as to assay: NCI tumour cell line growth inhibition, 48 h
The subject of assay [1] is EKVX NSCLC.
The subject of assay [2] is HT29 colon.
For assay [3], the system named is KM12 colon.
Assay [4] relates to MALME-3M melanoma.
Assay [5] has as its system MOLT-4 leukemia.
The subject of assay [6] is NCI-H460 lung.
Assay [7] relates to OVCAR-8 ovarian.
For assay [8], the system named is RPMI-8226 leukemia.
The subject of assay [9] is RXF 393 renal.
Assay [10] relates to SK-MEL-2 melanoma.
The test system of assay [11] is SNB-75 CNS.
For assay [12], the system named is UACC-257 melanoma.
Assay [13] relates to CAKI-1 renal.
Assay [14] concerns HL-60(TB) leukemia.
Assay [15] relates to NCI-H23 lung.
The subject of assay [16] is TK-10 renal.
Assay [17] relates to DU-145 prostate.
The subject of assay [18] is HS 578T breast.

`CC(C)(C)C(=O)/C=C/c1cccc(Oc2ccccc2)c1`: the TGI in [1] worked out at 35.9 µM; in assay [2], 22.1 µM; in [3], 25.6 µM; in [4] it was 36.2 µM; in assay [5], 57.1 µM; in assay [6], 32.5 µM. The TGI in assay [7] was found to be 27.8 µM; in assay [8] it was 22.5 µM; in assay [9], 30 µM; in assay [10], 27.6 µM; in [11], 64.6 µM; in [12], 28.4 µM.

With `CCCc1c(C(=O)OCC)[nH]c(C(=O)CCC(=O)c2[nH]c(C(=O)OCC)c(CCC)c2C(=O)OCC)c1C(=O)OCC`, the TGI in [13], in assay [1], in assay [14], in assay [2], in assay [3] and in assay [4] was more than 100 µM in each case. Moreover, the TGI in [5], in [15], in assay [6], in assay [7], in assay [8] and in assay [9] was more than 100 µM in each case. Moreover, the TGI was more than 100 µM in assay [10], 62.5 µM in [11], more than 100 µM in [16] and more than 100 µM in assay [12].

As for `CC/C(SC)=[N+](\C)[O-]`, the TGI in [13] was more than 100 µM; in [1] it was more than 100 µM; in assay [14], 25.2 µM; in assay [2] it was more than 100 µM; in [3] it was more than 100 µM; in [4], more than 100 µM. Also, the TGI in assay [5] is 79.3 µM; in [15], more than 100 µM; in assay [6], more than 100 µM; in [7], more than 100 µM; in assay [8], more than 100 µM; in assay [9], more than 100 µM. The TGI in assay [10], in assay [11], in assay [16] and in assay [12] was more than 100 µM each time.

On to `COc1ccc2c(c1)OC(c1ccccc1O)CC2=O` (stereo not drawn), for which the TGI in assay [13], in assay [1], in assay [2], in [3], in [4] and in assay [5] was more than 100 µM throughout. Also, the TGI in assay [15] is more than 100 µM; in assay [6], more than 100 µM; in [7], more than 100 µM; in assay [8], more than 100 µM; in [10], 77.5 µM; in assay [11] it was more than 100 µM. Also, the TGI in [16] and in assay [12] was more than 100 µM each time.

Consider `COc1ccc(C2S/C(=C\c3ccccc3)C(=O)N2NC(=O)Cc2ccccc2)cc1` (stereo not drawn), for which the TGI in [13], in assay [14], in assay [2], in assay [3], in assay [4] and in [5] was more than 100 µM throughout. For the same compound, the TGI in assay [15], in assay [6], in [7], in assay [8], in [9] and in assay [10] was more than 100 µM throughout. Further, the TGI in assay [11], in [16] and in assay [12] was more than 100 µM each time.

Turning to `C/C(=N/NC(N)=S)C(CN(C)C)C(C1=C(O)c2ccccc2OC1)c1ccccc1` (stereo not drawn), the TGI in assay [13], in assay [1], in [14], in assay [2], in assay [3] and in [4] was more than 100 µM in each case. Moreover, the TGI in [5], in [15], in [6], in assay [7], in assay [8] and in assay [9] was more than 100 µM in each case. Moreover, the TGI in assay [10], in [11], in assay [16] and in assay [12] was more than 100 µM in each case.

Consider `CN1N=C2c3ccccc3CC[C@H]2C1c1cccc(O)c1` (stereo partly drawn), for which the TGI in [1] was more than 100 µM; in assay [14] it was more than 100 µM; in [2], more than 100 µM; in [3], more than 100 µM; in [4], 5.01 µM; in [5] it was more than 100 µM. In addition, the TGI in assay [15], in [6], in [7], in [8], in [9] and in assay [10] was more than 100 µM each time. In addition, the TGI in [16] and in assay [12] was more than 100 µM each time.

`COC(=O)C(=O)C(C(=O)OC)C(=O)C(=O)Nc1cc(Cl)c(Cl)cc1Cl` (stereo not drawn): the TGI in assay [13], in assay [1], in [14], in assay [2], in [3] and in [4] was more than 100 µM throughout. The TGI in assay [5] was more than 100 µM; in assay [15], more than 100 µM; in [6], more than 100 µM; in [7], more than 100 µM; in assay [8], 60.3 µM; in assay [9], more than 100 µM. The TGI in assay [10], in [11], in assay [16] and in assay [12] was more than 100 µM throughout.

Regarding `CC1=C2CN(C(=O)OCC(C)C)CCC2C2=C(C(=O)c3ccccc3C2=O)C1C` (stereo not drawn), the TGI in assay [13], in assay [17], in [1], in assay [14], in assay [2] and in assay [3] was more than 10 µM throughout. Also, the TGI in assay [4], in assay [5], in [15], in [7], in [8] and in [9] was more than 10 µM each time. In addition, the TGI in assay [11], in assay [16] and in [12] was more than 10 µM in each case.

Turning to `CC(C)C1COC(c2ccc3ccccc3c2-c2c(O[Si](C)(C)C(C)(C)C)ccc3ccccc23)=N1` (stereo not drawn), the TGI in assay [13] is 45.2 µM; in [1] it was 35.3 µM; in assay [14] it was 33.1 µM; in [2] it was 29 µM; in assay [3], 35.7 µM; in [4], 32.9 µM. Besides, the TGI amounted to 32 µM in assay [5]; 30.7 µM in [15]; 37.4 µM in assay [6]; 35.3 µM in assay [7]; 33.2 µM in assay [8]; 34.7 µM in assay [9]. Further, the TGI was found to be 30.4 µM in [10], 32.5 µM in [11], 33 µM in [16] and 34.1 µM in assay [12].

Take `COC(=O)C1(C(=O)OC)CC2=C(S(=O)(=O)c3ccccc3)C[C@H](C#N)[C@H]2C1`: the TGI in [13], in [17], in assay [1], in assay [14], in assay [18] and in assay [2] was more than 100 µM throughout. Also, the TGI in [3], in [4], in assay [5], in [15], in [7] and in assay [9] was more than 100 µM in each case. The TGI in [10], in assay [11], in [16] and in [12] was more than 100 µM in each case.

As for `COC(=O)N/N=C(/Cc1occc(=O)c1O)C(=O)Nc1ccc([N+](=O)[O-])cc1[N+](=O)[O-]`, the TGI in assay [13], in assay [1], in [14], in [2], in [3] and in assay [4] was more than 100 µM in each case. In addition, the TGI in assay [5], in assay [15], in assay [6], in assay [7], in assay [8] and in assay [9] was more than 100 µM in each case. In addition, the TGI in assay [10], in assay [11], in assay [16] and in [12] was more than 100 µM throughout.

Regarding `O=C1NC2C(CCO)CC=C[C@H]2c2cc3c(cc21)OCO3` (stereo partly drawn), the TGI in assay [1], in assay [14], in assay [2], in [3], in assay [4] and in [5] was more than 100 µM each time. Moreover, the TGI in assay [15], in assay [6], in [7], in assay [8], in assay [9] and in assay [11] was more than 100 µM throughout. Also, the TGI in assay [16] and in [12] was more than 100 µM throughout.

As to `COC1=CC(=O)C2C(C1=O)C(c1ccc(OC)c(OC)c1)[C@H]2C` (stereo partly drawn), the TGI was 24 µM in assay [13]; more than 100 µM in assay [1]; 46.7 µM in assay [14]; more than 100 µM in [2]; more than 100 µM in assay [3]; 35.3 µM in [4]. In addition, the TGI was 31.3 µM in [5]; 42.9 µM in assay [15]; more than 100 µM in assay [6]; 42.5 µM in assay [7]; 38.4 µM in assay [8]; 35.2 µM in assay [9]. Further, the TGI in assay [10] is more than 100 µM; in [11], more than 100 µM; in assay [16], 33.3 µM; in assay [12], 41.1 µM.

In the case of `O=C(/C=C/c1ccc2c(c1)OCO2)CC(=O)/C=C/c1ccc2c(c1)OCO2`, the TGI in assay [13] was more than 100 µM; in assay [1], more than 100 µM; in [14], more than 100 µM; in assay [18] it was more than 100 µM; in assay [2], more than 100 µM; in [3] it was 10.8 µM. The TGI in [4], in [5], in assay [15], in assay [6], in assay [8] and in [9] was more than 100 µM in each case. Moreover, the TGI in assay [10], in [11] and in assay [16] was more than 100 µM in each case.

With `O=C(N/N=C(\c1nc2ccc(Cl)cc2[nH]c1=O)C(O)c1ccccc1Cl)c1ccncc1` (stereo not drawn), the TGI in [13], in assay [1], in [14], in assay [2], in [3] and in assay [4] was more than 100 µM throughout. Moreover, the TGI in assay [5], in [15], in [6], in assay [9], in [10] and in [11] was more than 100 µM throughout. Besides, the TGI in assay [16] and in [12] was more than 100 µM in each case.

With `CN(C)c1nc(=NCc2cccnc2)ss1`, the TGI in assay [13], in [17], in [1], in assay [14], in assay [2] and in assay [3] was more than 10 µM throughout. Moreover, the TGI in assay [4], in assay [5], in assay [15], in [7], in assay [8] and in [9] was more than 10 µM throughout. The TGI in assay [11], in assay [16] and in assay [12] was more than 10 µM each time.

In the case of `Cc1cn(C2CC(NC(=NCC3OC(n4cnc5c(N)ncnc54)CC3O)NC#N)C(CO)O2)c(=O)[nH]c1=O` (stereo not drawn), the TGI in assay [13], in [17], in assay [1], in assay [14], in [18] and in [2] was more than 100 µM each time. Also, the TGI in [3], in assay [4], in [5], in assay [15], in assay [6] and in assay [7] was more than 100 µM in each case. In addition, the TGI in [9], in assay [10], in assay [11], in [16] and in assay [12] was more than 100 µM each time.
